Key:
[1] = Incremental spectrophotometric titrations: stability constants of Zr(IV) complexes (DTPA competition); format: physicochemical; settings: 1 equivalent of Zr(IV); calculated speciation diagram
Description: (§1) Solution Thermodynamics. All titrant solutions were degassed by boiling for 1 h while being purged under Ar. Carbonate-free 0.1 M KOH was prepared from concentrate (J.T Baker Dilut-It) and was standardized by titrating against 0.1 M potassium hydrogen phthalate (99.95%, Sigma Aldrich). Solutions of 0.1 M HCl were similarly prepared and were standardized by titrating against TRIS (99.9%, J.T. Baker). The glass electrode (Metrohm-Micro Combi-response to [H+]) used for the pH measurements was calibrated at 25.0° C. and at an ionic strength of 0.1 M (KCl) before each potentiometric or spectrophotometric titration. The calibration data were analyzed using the program GLEE (Gans & O'Sullivan, Talanta, 2000, 51 (1): 33-37) to refine for the E° and slope. […]
(§2) Incremental Spectrophotometric Titrations. […] For the 3,4,3-LI(CAM) protonation (and Eu(III)-3,4,3-LI(CAM) complexes), titrations were performed with an initial concentration of 50 μM of 3,4,3-LI(CAM) (and 50 μM of Eu(III)) resulting in absorbance values included between 0 and 1.0 throughout the titration. […]
(§3) Data Treatment. […] All metal and chelator concentrations were held at estimated values determined from the volume of standardized stock solutions. All species formed with 3,4,3-LI(CAM) were considered to have significant absorbance to be observed in the UV-vis spectra and were therefore included in the refinement process. […]

[2] = Incremental spectrophotometric titrations: stability constants of Th(IV) complexes (DTPA competition); format: physicochemical; settings: 1 equivalent of Th(IV); calculated speciation diagram
Description: as §1, §2, §3

[3] = Incremental spectrophotometric titrations: protonation constants of 3,4,3-LI(CAM); format: physicochemical; settings: I=0.1 M (KCl), T=25° C.; lower values = higher acidity
Description: as §1, §2, §3

[4] = Incremental spectrophotometric titrations: stability constants of Eu(III) complexes; format: physicochemical; settings: 1 equivalent of Eu(III); calculated speciation diagram
Description: as §1, §2, §3

[5] = molecular target: T1, recombinant wild-type Scn (Homo sapiens, UniProt P80188); assay: Fluorescence Quenching Binding Assay
T1 construct: made in house
Description: Metal, Chelator, and Protein Working Solutions. The trivalent lanthanide Ln(III) working stock solutions were prepared in standardized 0.1 M HCl. A Zr(IV) stock solution was prepared by dissolving ZrCl4 in 3.0 M H2SO4, to prevent hydrolysis. The metal salt ZrCl4 was handled and stored in a glovebox kept under inert atmosphere. The Zr(IV) stock solution was standardized against EDTA, with xylene orange as the indicator (Welcher, F. J. The analytical uses of ethylenediamine tetraacetic acid; 1958). A Th(IV) stock solution was prepared in 0.1 M H2SO4. […]
Fluorescence Quenching Binding Assay. […] Fluorescence quenching of Scn was measured after each titrant addition on a HORIBA Jobin Yvon IBH FluoroLog-3 spectrofluorimeter, with 3 nm slit band-pass, using the characteristic excitation and emission wavelengths λexc=280 and λem=320-360 nm. The intrinsic fluorescence in proteins is generally attributed to tryptophan residues; two residues W31 and W79 are found in the proximity of the Scn binding site. Fluorescence values were corrected for dilution upon addition of titrant. Fluorescence data were analyzed by nonlinear regression analysis of fluorescence response versus chelator concentration using a one-site binding model as described elsewhere. […]

[6] = cited from earlier work
[7] = In Vivo Biodistribution Assay with ^238Pu tracer; design: species or system CD-1 mice; settings: mice, intravenous
Description: In Vivo Biodistribution Assay. All procedures and protocols used in the presented in vivo studies were reviewed and approved by the Institutional Animal Care and Use Committee at Lawrence Berkeley National Laboratory and performed in AAALAC accredited facilities. The animals used were adult female CD-1 mice (180±7 days old, 40.8±5.8 g). Solutions of ^238Pu complexed by 3,4,3-LI(CAM) and Scn:3,4,3-LI(CAM) were prepared in situ at molar ratios protein:ligand:^238Pu of 0:100:1 and 100:100:1, respectively by mixing and incubating the appropriate quantities of ^238Pu(NO3)4, ligand, and protein in phosphate-buffered saline (PBS) to reach a ^238Pu concentration of 12 ng L-1. Protein solutions were washed thrice with PBS using 10 kDa molecular weight cut-off membrane-based centrifugal filters, and all solutions were filter-sterilized (0.22 μm) prior to injection. Under isoflurane anesthesia, groups of three normally fed mice were injected intravenously with 0.2 mL of a complex solution (370 Bq per mouse). After injection of the ^238Pu tracer, mice were weighed, identified, and housed in groups of three in plastic stock cages lined with a 0.5 cm layer of highly absorbent low-ash pelleted cellulose bedding (Alpha-dri) for separation of urine and feces. Mice were given water and food ad libitum and euthanized at 4, 24, or 48 h after tracer injection. All experiments using ^238Pu tracers were managed as metabolic balance studies, in which tissues and excreta were analyzed for ^238Pu by liquid scintillation counting on a Perkin Elmer Packard Tri-Carb model B4430. The methods of sample collection, preparation, radioactivity measurements, and data reduction have been published previously (Sturzbecher-Hoehne, et al., Dalton Transactions, 2011, 40 (33): 8340-8346: Kullgren, et al., Toxicology mechanisms and methods, 2013, 23 (1), 18-26; Durbin, et al., Health physics 2000, 78 (5): 511-521). Those methods provide quantitative measurements of radioactivity in biological samples; material recoveries averaged 99% of the amount injected in these experiments.
Biodistribution Evaluation. To evaluate the in vivo retention and excretion patterns of M(IV)-3,4,3-LI(CAM) complexes and their Scn adducts, ^238Pu(IV) was used as a radiolabel. ^238Pu(IV) likely behaves similarly to Th(IV) and Zr(IV) (the ionic radius of Pu^4+ is included between those of Th^4+ and Zr^4+) (Sturzbecher-Hoehne, et al., Inorganic Chemistry, 2015, 54 (7): 3462-3468) but allows for more accurate metabolic balance experiments due to its relatively long radioactive half-life (87.8 yr) and low specific activity (0.63 TBq/g), compared to the therapeutic ^227Th (18.68 d; 1139 TBq/g) and imaging ^89Zr (78.42 h; 16,630 TBq/g) isotopes. […] In this in vivo stability experiment, ^238Pu-ligand complex solutions were formed in situ (Ligand:Pu and Scn:Chelator:Pu ratios of 100:1 and 100:100:1, respectively) and administered intravenously. Mice were euthanized 4, 24, or 48 h after the metal injection, and tissues and excreta were radioanalyzed for ^238Pu content (FIG. 14).

Molecule: O=C(NCCCN(CCCCN(CCCNC(=O)c1cccc(O)c1O)C(=O)c1cccc(O)c1O)C(=O)c1cccc(O)c1O)c1cccc(O)c1O [3,4,3-LI(CAM)]
- pH at which complexes start forming [1]: ~3
- pH at which complexes start forming [2]: ~3
- overall acidity ΣpKa5-8 [3]: 45.4
- pH at which complexation starts [4]: 5
- Kd [5]: 1.2 ± 0.4 nM

Molecule: O=C(NCCCN(CCCCN(CCCNC(=O)c1cccc(=O)n1O)C(=O)c1cccc(=O)n1O)C(=O)c1cccc(=O)n1O)c1cccc(=O)n1O [3,4,3-LI(1,2-HOPO)]
- pH at which 4+ metal complexes are formed ([6]; 4+ metals, very acidic conditions): < 0
- pH at which Eu(III) species appear ([6]; Eu(III), same conditions): 1

B1: Scn:[Pu^IV(3,43-LI(CAM))]: siderocalin adduct of the ^238Pu(IV) complex of 3,4,3-LI(CAM), Scn:chelator:Pu 100:100:1 (conjugate, UniProt P80188 21-198, looked up)
Neutrophil …: QDSTSDLIPAPPLSKVPLQQNFQDNQFQGKWYVVGLAGNAILREDKDPQKMYATIYELKEDKSYNVTSVLFRKKKCDYWIRTFVPGCQPGEFTLGNIKSYPGLTSYLVRVVSTNYNQHAMVFFKKVSQNREYFKITLYGRTKELTSELKENFIRFSKSLGLPENHIVFPVPIDQCIDG
modifications: bound Pu(IV)-3,4,3-LI(CAM) complex
- in vivo stability [7]: high in vivo stability
- injected ^238Pu excreted by 48 hours ([7]; 370 Bq per mouse, 48 h): 30%
- ^238Pu found in the kidneys ([7]; 4 h after administration): up to 52%
- ^238Pu in urine versus feces ([7]; all time points (4, 24, 48 h)): more ^238Pu was found in the urine than in the feces
- retention and excretion pattern (kidney vs. liver) ([7]; early time points): favors elimination through the renal system
